{"source": "paper PMC11201819", "about": "(Protein Science : A Publication of the Protein Society, 2024)", "key": {"[1]": {"biological_target": "T1, CLsoDHDPS (dihydrodipicolinate synthase) (Candidatus Liberibacter solanacearum, UniProt A0A0F4VK59)", "T1 construct": "gene dapA", "T1 sequence (A0A0F4VK59 1-296)": "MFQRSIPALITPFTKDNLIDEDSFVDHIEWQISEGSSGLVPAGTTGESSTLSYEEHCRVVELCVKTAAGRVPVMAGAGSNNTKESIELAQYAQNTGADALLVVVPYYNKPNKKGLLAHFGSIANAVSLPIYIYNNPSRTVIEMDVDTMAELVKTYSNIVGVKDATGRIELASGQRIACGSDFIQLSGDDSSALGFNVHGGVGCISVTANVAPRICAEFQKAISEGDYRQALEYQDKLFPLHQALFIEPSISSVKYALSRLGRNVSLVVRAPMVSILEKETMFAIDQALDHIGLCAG", "format": "binding"}, "[2]": {"biological_target": "T1, CLsoDHDPS (dihydrodipicolinate synthase)", "experiment": "biochemical"}, "[3]": {"biological_target": "T1, CLsoDHDPS (dihydrodipicolinate synthase)", "experiment": "biochemical", "remark": "listed apart in the source"}, "N[C@@H](CC=O)C(=O)O": {"system": "N[C@@H](CC=O)C(=O)O", "experiment": "purified protein"}}, "data": [{"compound": "O=CCCC(=O)O", "note": "[SSA, succinic semi‐aldehyde]", "values": [{"measurement": "X-ray crystal structure (1.93 Å) with pyruvate", "setting": "[1]", "result": "continuous density between Lys162, pyruvate, and succinic semi‐aldehyde such that the carbon–carbon bond between these substrates has formed"}]}, {"compound": "NCCCC[C@H](N)C(=O)O", "note": "[lysine]", "values": [{"measurement": "Ki", "setting": "[2]", "result": "121 ± 5", "unit": "µM"}]}, {"compound": "CC(=O)C(=O)O", "note": "[pyruvate]", "values": [{"measurement": "Kd", "setting": "[3]", "result": "2 ± 0.7", "unit": "µM"}]}, {"compound": "CLsoDHDPS (dihydrodipicolinate synthase) (Candidatus Liberibacter solanacearum)", "values": [{"measurement": "Km", "setting": "N[C@@H](CC=O)C(=O)O", "result": "33 ± 3", "unit": "µM"}, {"measurement": "kcat", "setting": "N[C@@H](CC=O)C(=O)O", "result": "6 ± 0.2", "unit": "s⁻¹"}, {"measurement": "kcat/Km", "setting": "N[C@@H](CC=O)C(=O)O", "result": 180000, "unit": "M⁻¹ s⁻¹"}]}]}
